Key:
Assay in all cases: Post-emergence test, weed control effect
Format in all cases: in vivo
Veronica polita = conditions: after 3 weeks; for inhibition at 300 g/ha / inhibition at 150 g/ha: Veronica polita, 504 h, fresh weight inhibition, read-out: activity level of harmful plant destruction (growth inhibition rate), Veronica polita
In short: (§1)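 Seeds are sown in soil pots and raised in the greenhouse until the 2-3 leaf stage. Plants are then sprayed with compound dissolved in acetone with Tween-80, diluted in water and supplemented with 80% vegetable oil methyl ester synergist at 1500 g/ha, and fresh weight inhibition is rated 0-10 three weeks later.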

Galium aparine = conditions: 504 h, after 3 weeks, fresh weight inhibition, read-out: activity level of harmful plant destruction (growth inhibition rate), Galium aparine
In short: as §1

Chenopodiaceae = conditions: after 3 weeks; for inhibition at 300 g/ha / inhibition at 150 g/ha: 504 h, fresh weight inhibition, read-out: activity level of harmful plant destruction (growth inhibition rate), Chenopodiaceae
In short: as §1

Amaranthus retroflexus = conditions: after 3 weeks
In short: as §1

Rorippa indica = conditions: after 3 weeks; for inhibition at 300 g/ha / inhibition at 150 g/ha: Rorippa indica, 504 h, fresh weight inhibition, read-out: activity level of harmful plant destruction (growth inhibition rate), Rorippa indica
In short: as §1

Echinochloa crus-galli = conditions: 504 h, after 3 weeks, fresh weight inhibition, read-out: activity level of harmful plant destruction (growth inhibition rate), Echinochloa crus-galli
In short: as §1

Setaria viridis = conditions: 504 h, after 3 weeks, fresh weight inhibition, read-out: activity level of harmful plant destruction (growth inhibition rate), Setaria viridis
In short: as §1

SMILES: Oc1cc(C(F)(F)F)nnc1-c1ccc(F)nc1 [Compound 207]
- inhibition at 300 g/ha (Veronica polita): 100%
- weed control effect (activity level), Veronica polita (Veronica polita; dose 2000 g/ha): 10
- inhibition at 300 g/ha (Galium aparine): 100%
- inhibition at 300 g/ha (Chenopodiaceae): 100%
- weed control effect (activity level), Chenopodiaceae (Chenopodiaceae; dose 2000 g/ha): 10
- weed control effect (activity level), Amaranthus retroflexus (Amaranthus retroflexus; dose 2000 g/ha): 10
- inhibition at 300 g/ha (Rorippa indica): 100%
- weed control effect (activity level), Rorippa indica (Rorippa indica; dose 2000 g/ha): 10
- inhibition at 300 g/ha (Echinochloa crus-galli): 100%
- inhibition at 300 g/ha (Setaria viridis): 100%

SMILES: Oc1cc(C(F)(F)F)nnc1-c1ccnc(F)c1 [Compound 206]
- inhibition at 300 g/ha (Veronica polita): 100%
- weed control effect (activity level), Veronica polita (Veronica polita; dose 2000 g/ha): 10
- inhibition at 300 g/ha (Galium aparine): 100%
- inhibition at 300 g/ha (Chenopodiaceae): 100%
- weed control effect (activity level), Chenopodiaceae (Chenopodiaceae; dose 2000 g/ha): 10
- weed control effect (activity level), Amaranthus retroflexus (Amaranthus retroflexus; dose 2000 g/ha): 10
- inhibition at 300 g/ha (Rorippa indica): 100%
- weed control effect (activity level), Rorippa indica (Rorippa indica; dose 2000 g/ha): 10
- inhibition at 300 g/ha (Echinochloa crus-galli): 100%
- inhibition at 300 g/ha (Setaria viridis): 100%

SMILES: Oc1cc(C(F)(F)F)nnc1-c1cnc(F)c(Cl)c1 [Compound 1000]
- weed control effect (activity level), Veronica polita (Veronica polita; Dose 3000 g/ha): 10
- inhibition at 300 g/ha (Veronica polita): 100%
- inhibition at 300 g/ha (Galium aparine): 100%
- inhibition at 300 g/ha (Chenopodiaceae): 100%
- weed control effect (activity level), Chenopodiaceae (Chenopodiaceae; Dose 3000 g/ha): 10
- weed control effect (activity level), Amaranthus retroflexus (Amaranthus retroflexus; Dose 3000 g/ha): 10
- weed control effect (activity level), Rorippa indica (Rorippa indica; Dose 3000 g/ha): 10
- inhibition at 300 g/ha (Rorippa indica): 100%
- inhibition at 300 g/ha (Echinochloa crus-galli): 100%
- inhibition at 300 g/ha (Setaria viridis): 100%

SMILES: Oc1cc(C(F)(F)F)nnc1-c1cnn(C(F)F)c1 [Compound 844]
- inhibition at 150 g/ha (Veronica polita): 100%
- weed control effect (activity level), Veronica polita (Veronica polita; dose 2000 g/ha): 10
- inhibition at 150 g/ha (Galium aparine): 100%
- inhibition at 150 g/ha (Chenopodiaceae): 100%
- weed control effect (activity level), Chenopodiaceae (Chenopodiaceae; dose 2000 g/ha): 10
- weed control effect (activity level), Amaranthus retroflexus (Amaranthus retroflexus; dose 2000 g/ha): 10
- inhibition at 150 g/ha (Rorippa indica): 100%
- weed control effect (activity level), Rorippa indica (Rorippa indica; dose 2000 g/ha): 10
- inhibition at 150 g/ha (Echinochloa crus-galli): 100%
- inhibition at 150 g/ha (Setaria viridis): 100%

SMILES: Cc1cc(-c2nnc(C(F)(F)F)cc2O)n(C)n1 [Compound 779]
- weed control effect (activity level), Veronica polita (Veronica polita; Dose 3000 g/ha): 10
- inhibition at 300 g/ha (Veronica polita): 100%
- inhibition at 300 g/ha (Galium aparine): 100%
- inhibition at 300 g/ha (Chenopodiaceae): 100%
- weed control effect (activity level), Chenopodiaceae (Chenopodiaceae; Dose 3000 g/ha): 10
- weed control effect (activity level), Amaranthus retroflexus (Amaranthus retroflexus; Dose 3000 g/ha): 10
- weed control effect (activity level), Rorippa indica (Rorippa indica; Dose 3000 g/ha): 10
- inhibition at 300 g/ha (Rorippa indica): 100%
- inhibition at 300 g/ha (Echinochloa crus-galli): 100%
- inhibition at 300 g/ha (Setaria viridis): 100%

SMILES: Oc1cc(C(F)(F)F)nnc1-c1ccc(F)c(F)c1 [Compound 744]
- weed control effect (activity level), Veronica polita (Veronica polita; Dose 3000 g/ha): 10
- inhibition at 300 g/ha (Veronica polita): 100%
- inhibition at 300 g/ha (Galium aparine): 100%
- inhibition at 300 g/ha (Chenopodiaceae): 100%
- weed control effect (activity level), Chenopodiaceae (Chenopodiaceae; Dose 3000 g/ha): 10
- weed control effect (activity level), Amaranthus retroflexus (Amaranthus retroflexus; Dose 3000 g/ha): 10
- weed control effect (activity level), Rorippa indica (Rorippa indica; Dose 3000 g/ha): 10
- inhibition at 300 g/ha (Rorippa indica): 100%
- inhibition at 300 g/ha (Echinochloa crus-galli): 100%
- inhibition at 300 g/ha (Setaria viridis): 100%

SMILES: N#Cc1ccc(-c2nnc(C(F)(F)F)cc2OC(=O)c2ccc(Cl)cc2)cc1 [Compound 1-82]
- weed control effect, Veronica polita (activity level) (Veronica polita; Dose 3000 g/ha): 10
- inhibition at 150 g/ha (Veronica polita): 80 to 90%
- inhibition at 150 g/ha (Galium aparine): 70 to 80%
- inhibition at 150 g/ha (Chenopodiaceae): 100%
- weed control effect, Chenopodiaceae (activity level) (Chenopodiaceae; Dose 3000 g/ha): 10
- weed control effect, Amaranthus retroflexus (activity level) (Amaranthus retroflexus; Dose 3000 g/ha): 10
- weed control effect, Rorippa indica (activity level) (Rorippa indica; Dose 3000 g/ha): 10
- inhibition at 150 g/ha (Rorippa indica): 100%
- inhibition at 150 g/ha (Echinochloa crus-galli): 70 to 80%
- inhibition at 150 g/ha (Setaria viridis): 100%

SMILES: Cn1nc(-c2cc(O)c(Cl)cc2Cl)c(=O)cc1C(F)(F)F [C, reference compound]
- inhibition at 300 g/ha (Veronica polita): 20 to 30%
- inhibition at 300 g/ha (Galium aparine): 20 to 30%
- inhibition at 300 g/ha (Chenopodiaceae): 30 to 40%
- inhibition at 300 g/ha (Rorippa indica): 30 to 40%
- inhibition at 300 g/ha (Echinochloa crus-galli): 0%
- inhibition at 300 g/ha (Setaria viridis): 0%

SMILES: Oc1cc(C(F)(F)F)nnc1-c1cc(F)cc(F)c1 [Compound 35]
- inhibition at 300 g/ha (Veronica polita): 100%
- weed control effect (activity level), Veronica polita (Veronica polita; dose 1000 g/ha): 10
- inhibition at 300 g/ha (Galium aparine): 90 to 100%
- inhibition at 300 g/ha (Chenopodiaceae): 100%
- weed control effect (activity level), Chenopodiaceae (Chenopodiaceae; dose 1000 g/ha): 10
- weed control effect (activity level), Amaranthus retroflexus (Amaranthus retroflexus; dose 1000 g/ha): 10
- inhibition at 300 g/ha (Rorippa indica): 100%
- weed control effect (activity level), Rorippa indica (Rorippa indica; dose 1000 g/ha): 10
- inhibition at 300 g/ha (Echinochloa crus-galli): 100%
- inhibition at 300 g/ha (Setaria viridis): 100%

Reference: patent US12568972B2, “Pyridazinol compounds and derivatives, preparation methods, herbicidal compositions and applications thereof” (Qingdao Kingagroot Chemical Compound Co., Ltd., priority 2018, dated 2026)
